These are literature values, as cited in publication PMC12308805, “Ultrahigh-Throughput Virtual Screening Strategies against PPI Targets: A Case Study of STAT Inhibitors” (Journal of Chemical Information and Modeling, 2025).

Square brackets hold non-standard residues; d marks the D form. Peptide text beside a SMILES is read from it. * marks the point of attachment. Isobutyryl = CC(C)C(=O)*

The first data set concerns STAT3. To be noted: sheet 6QHD_actives_decoys; retrospective screening set for STAT3 SH2 domain (PDB 6QHD); […]; ref DUD-E; cited from earlier work.
As to `CCN1C(=O)[C@@](C)(C(=O)Nc2ccc(S(=O)(=O)Nc3nccs3)cc2)Oc2ccccc21` [Decoy608], the Type entry is “Inactive (Decoy)”.

For the compound `COc1ccc(NC(=O)c2cc(C)nc3c2c(C)nn3C)cc1NS(=O)(=O)c1ccc(F)cc1` [Decoy619], the Type entry is “Inactive (Decoy)”.

Consider `Cc1ccc(S(=O)(=O)N[C@]2(C(F)(F)F)C(=O)Nc3c2c(=O)nc(O)n3-c2ccccc2)cc1` [Decoy629], for which the Type result is given as “Inactive (Decoy)”.

Still in this data set, the particulars now being: sheet 6QHD_actives_decoys; retrospective screening set for STAT3 SH2 domain (PDB 6QHD); decoys generated with DUD-E and presumed inactive, not tested; ref DUD-E; cited from earlier work.
For the compound `CC(=O)N[C@H]1[C@H]([C@H](O)[C@H](O)CO)O[C@](O[C@H]2[C@@H](O)[C@@H](CO)O[C@@H](O[C@H]3[C@H](O)[C@@H](O)[C@H](NC(C)=O)O[C@@H]3CO)[C@@H]2O)(C(=O)O)C[C@@H]1O` [Decoy607], the Type result is given as “Inactive (Decoy)”.

In the case of `CCOC(=O)Cn1nnnc1[C@@H](CC)N(CCc1cccc(C)c1)Cc1cc2cc(OCC)ccc2[nH]c1=O` [Decoy609], the Type entry was “Inactive (Decoy)”.

With `Cc1ccc(S(=O)(=O)NCc2ccco2)cc1C(=O)NNC(=O)c1nn(-c2ccccc2)cc1O` [Decoy610], the Type entry is listed as “Inactive (Decoy)”.

For `C=C1CC[C@@H]2[C@](C)(CC[C@H](O)[C@@]2(C)CO[C@H]2O[C@@H](CO[C@H]3O[C@@H](CO)[C@@H](O)[C@H]3O)[C@@H](O)[C@@H](O)[C@H]2O)[C@@H]1CC/C(C)=C\CO` [Decoy611], the Type result is given as “Inactive (Decoy)”.

Regarding `C=C1CC[C@H]2[C@](C)(CO[C@H]3O[C@@H](CO[C@H]4O[C@@H](CO)[C@@H](O)[C@H]4O)[C@@H](O)[C@@H](O)[C@H]3O)[C@@H](O)CC[C@]2(C)[C@H]1CC/C(C)=C\CO` [Decoy612], the Type result is recorded as “Inactive (Decoy)”.

Take `O=C(O)c1cccc(NC(=O)[C@@H]2C[C@H](SS[C@@H]3CN[C@H](C(=O)Nc4cccc(C(=O)O)c4)C3)CN2)c1` [Decoy613]: the Type entry was “Inactive (Decoy)”.

`Cc1ccc(S(=O)(=O)CNC(=O)[C@@H](c2ccc3c(c2)OCO3)N(C)C(=O)c2cccc(O)c2O)cc1` [Decoy614]: the Type result is “Inactive (Decoy)”.

Take `COc1cc([N+](=O)[O-])ccc1NC(=O)C[C@H]1N=C(N/C(N)=N/c2ccccc2C)N=C1O` [Decoy615]: the Type result is listed as “Inactive (Decoy)”.

For the compound `CC[C@@H](c1nnnn1CCOC)N(CCc1ccc(OC)c(OC)c1)Cc1cc2c(C)cc(C)cc2[nH]c1=O` [Decoy616], the Type entry is on record as “Inactive (Decoy)”.

On to `CCOC(=O)c1c(C)oc(NC(=O)[C@@H](CC)n2c(N)nnc2SCC(=O)OC)c1C(=O)OCC` [Decoy617], for which the Type entry is given as “Inactive (Decoy)”.

Turning to `Cc1ccc(NC(=O)NC[C@@H](C)Cn2cccn2)cc1NC(=O)NC[C@H](C)Cn1cccn1` [Decoy618], the Type entry is on record as “Inactive (Decoy)”.

Regarding `OC[C@@H](O)CN(C[C@H](O)CO)c1ccc(Cc2ccc(N(C[C@H](O)CO)C[C@@H](O)CO)cc2)cc1` [Decoy620], the Type entry is reported as “Inactive (Decoy)”.

As to `C[C@H](OC(=O)[C@@](O)(Cc1ccc(O)cc1)[C@H](C)O)[C@@](O)(Cc1ccc(O)cc1)C(=O)OCc1ccc(O[C@H]2O[C@@H](CO)[C@@H](O)[C@@H](O)[C@H]2O)cc1` [Decoy621], the Type entry is “Inactive (Decoy)”.

As to `COC(=O)[C@@H]1O[C@@H](O[C@@H]2CC[C@@]3(C)[C@@H](CC[C@@H]4[C@H]5CC[C@@H](/C(COC(C)=O)=N/NC(N)=O)[C@@]5(C)CC(=O)[C@H]43)C2)[C@H](OC(C)=O)[C@@H](OC(C)=O)[C@@H]1OC(C)=O` [Decoy622], the Type entry is “Inactive (Decoy)”.

For `COCCN(CCOC)S(=O)(=O)c1ccc(C(=O)Nc2sccc2C(=O)NN(C)C)cc1` [Decoy623], the Type result was “Inactive (Decoy)”.

In the case of `O=C(CSc1cn[nH]n1)Nc1ccc(-c2nc3ccc(NC(=O)CSc4cn[nH]n4)cc3s2)c(O)c1` [Decoy624], the Type entry is reported as “Inactive (Decoy)”.

With `COC(=O)c1ccc(NC(=O)CSc2nn3c(SCC(=O)Nc4ccc(C(=O)OC)cc4)nnc3s2)cc1` [Decoy625], the Type entry is reported as “Inactive (Decoy)”.

Regarding `CNC(=O)[C@H](CC(C)C)NC(=O)[C@H](Cc1c[nH]cn1)NC(=O)[C@@H](C)NC(=O)[C@@H](NC(=O)[C@H](C)NC(=O)[C@H](Cc1c[nH]c2ccccc12)NC(=O)[C@H](Cc1cnc[nH]1)NC(=O)C(C)C)C(C)C` [Decoy626] (Isobutyryl-HWAV[dA]HL-NHMe), the Type result was “Inactive (Decoy)”.

As for `CCCCCCCCCC(=O)O[C@@H]1[C@@H](O[C@@]2(CO)O[C@@H](CO)[C@@H](O)[C@H]2OC(=O)C(C)C)O[C@@H](CO)[C@@H](OC(=O)C(C)C)[C@H]1OC(=O)C(C)C` [Decoy627], the Type entry is given as “Inactive (Decoy)”.

Take `COc1cc(C(=O)NCc2nnc(SCC(=O)Nc3ccc(F)cc3)n2-c2cccc(C)c2)cc(OC)c1OC` [Decoy628]: the Type entry is listed as “Inactive (Decoy)”.

For the compound `COC(=O)c1cc2c(cc1C(=O)OC)OCCOCCOCCN(Cc1cn(CCOCCOCCO)nn1)CCOCCOCCO2` [Decoy630], the Type result is on record as “Inactive (Decoy)”.

`CCOCCOc1ccccc1C(=O)N/C(S)=N\NC(=O)COc1ccc([N+](=O)[O-])cc1` [Decoy631]: the Type result is “Inactive (Decoy)”.

As for `CCN(CC)C(=O)c1sc(NC(=O)CCSCCC(=O)Nc2sc(C(=O)N(CC)CC)c(C)c2C(=O)OC)c(C(=O)OC)c1C` [Decoy632], the Type result is “Inactive (Decoy)”.

For the compound `COC(=O)[C@@H]1O[C@H](OCC(=O)[C@@]2(O)CC[C@@H]3[C@H]4CCC5=CC(=O)CC[C@@]5(C)[C@@H]4[C@@H](O)C[C@@]32C)[C@@H](OC(C)=O)[C@H](OC(C)=O)[C@H]1OC(C)=O` [Decoy633], the Type result is “Inactive (Decoy)”.

On to `COC(=O)[C@H]1O[C@H](OCC(=O)[C@@]2(O)CC[C@H]3[C@H]4CCC5=CC(=O)C=C[C@@]5(C)[C@@H]4[C@@H](O)C[C@@]32C)[C@@H](OC(C)=O)[C@H](OC(C)=O)[C@H]1OC(C)=O` [Decoy634], for which the Type entry was “Inactive (Decoy)”.

Regarding `COc1cc(/N=N/c2ccc(N)cc2)c(C)cc1/N=N/c1c(S(=O)(=O)O)cc2ccc(N)cc2c1O` [Decoy635], the Type entry was “Inactive (Decoy)”.

With `CC(=O)N[C@@H]1[C@@H](O)[C@H](O[C@@H]2O[C@H](CO)[C@H](O)[C@H](O[C@@]3(C(=O)O)C[C@H](O)[C@@H](NC(C)=O)[C@H]([C@H](O)[C@H](O)CO)O3)[C@H]2O)[C@@H](CO)O[C@H]1O` [Decoy636], the Type result is on record as “Inactive (Decoy)”.

For the compound `CC(=O)N[C@@H]1[C@@H](O)[C@H](O[C@@H]2O[C@H](CO)[C@H](O)[C@H](O[C@@]3(C(=O)O)C[C@H](O)[C@H](NC(C)=O)[C@H]([C@H](O)[C@H](O)CO)O3)[C@H]2O)[C@@H](CO)O[C@H]1O` [Decoy637], the Type result was “Inactive (Decoy)”.

On to `CC(=O)N[C@@H]1[C@@H](O)[C@H](O[C@@H]2O[C@H](CO)[C@H](O)[C@H](O[C@]3(C(=O)O)C[C@H](O)[C@@H](NC(C)=O)[C@H]([C@H](O)[C@H](O)CO)O3)[C@H]2O)[C@@H](CO)O[C@@H]1O` [Decoy638], for which the Type entry is on record as “Inactive (Decoy)”.

Consider `COc1cc([N+](=O)[O-])cc(/C=N/NC(=O)CSc2nnc(-c3cccc(Br)c3)n2C)c1O` [Decoy639], for which the Type entry is “Inactive (Decoy)”.

Regarding `CC(C)(CO[P@](=O)(O)O[P@](=O)(O)OC[C@H]1O[C@@H](n2cnc3c(N)ncnc32)[C@@H](O)[C@H]1O)[C@H](O)C(=O)NCCC(=O)NCCS` [Decoy640], the Type entry was “Inactive (Decoy)”.

Regarding `COc1cc(O)cc(C)c1C(=O)O[C@H]1[C@H](O)[C@@H](O)[C@@H](OC2[C@@H](O)[C@H](O)C(O)[C@H](O)[C@@H]2O)O[C@@H]1CO` (some centres unmarked) [Decoy641], the Type result is given as “Inactive (Decoy)”.
